These are literature values, as cited in paper PMC5487684, “Safety, Pharmacokinetics, and Antiviral Activity of a Novel HIV Antiviral, ABX464, in Treatment-Naive HIV-Infected Subjects in a Phase 2 Randomized, Controlled Study” (Antimicrobial Agents and Chemotherapy, 2017).

The data set concerns HIV replication in PBMCs. On the set-up: method as in PMID 25889234. The note with it: in vitro; cited from earlier work.

Molecules are shown by their SMILES.

For the compound `FC(F)(F)Oc1ccc(Nc2ccc3cccc(Cl)c3n2)cc1` [ABX464], the “Antiviral effect on HIV replication in PBMCs” value is on record as “can inhibit HIV replication”.
